Consider eleven compounds from patent US5616575A (priority 1995, dated 1997).

Entries after “also recorded” stand apart in the source; their conditions may differ.

For series [1] the following is noted: fighting mice; cited from earlier work.
For series [2] the following is noted: rodents; cited from earlier work.
For series [3] the following is noted: humans; cited from earlier work.
The test system of series [4] is dopamine levels in the nucleus accumbens and striatum. The note with it: nucleus accumbens and striatum (ibogaine: striatum); cited from earlier work.
Series [5] in a line: In vivo evaluation, behavior of rats after injection. The note with it: for locomotor activity and ataxia / behavioral symptoms: injection, 7a and 7c 100 μmol/kg, 7d 150 μmol/kg; for locomotor activity and ataxia / behavioral symptoms / tremors: 7b comparable dose; for tremorigenic effect relative to ibogaine: comparison in words with ibogaine at 40 mg/kg; for tremors: 7a 100 μmol/kg. The method, then:
Onset of symptoms was evident within 2 minutes, and the effects were most severe by 5 min. Signs of recovery became evident by 40 min post-injection and the animals appeared fully recovered after 60 min. Mild tremors were observed between 3 and 8 min post-injection.

For series [6] the following is noted: mice; cited from earlier work.
Series [7] has as its target T1, kappa-1 receptor (Homo sapiens, UniProt P41145).
T1 construct: from tissue; host or cells: human insular cortex membranes
Briefly: Competition binding at the kappa-1 receptor of human insular cortex ([3H]U693593). The note with it: for IC50: IC50, human insular cortex; for IC50 / nH: mean ± S.D.; for nH: human insular cortex; for relative potency at the kappa-1 receptor: comparison with ibogaine, in words. The method, then:
Data analysis was performed with EBDA (DRUG); NS = nonspecific
The data presented are the mean ± S.D. of two independent

For the next series, the target named is T2, 5-HT transporter (Homo sapiens, UniProt P31645).
T2 construct: from tissue; host or cells: human occipital cortex membranes
Kind of series: Full competition experiments at the 5-HT transporter in human occipital cortex ([125I]RTI55). The note with it: for nH / IC50: human occipital cortex, mean ± S.D.; for nH: 0.01 nM [125I]RTI55; for relative potency at the 5-HT transporter: comparison with ibogaine or noribogaine, in words; for IC50: 0.01 nM [125I]RTI55, 1 μM benztropine, 25° C., two determinations in triplicate. The series is classed as binding. The method, then: ^a Membranes isolated from human occipital cortex were incubated for
hr at 25° C., in the presence of 1 μM benztropine, with 0.01 nM
[^125 I]RTI55 and varying concentrations of the respective compounds.
Data analysis was performed with EBDA (DRUG). The data presented are the
mean ± S.D. of two independent determinations conducted in triplicate,
nonspecific binding was evaluated using 50 μm-cocaine. (See, J.K.
Staley et al., J. Neurochem., 62, 549 (1994)).

For series [8] the following is noted: other animals; cited from earlier work.
For series [9] the following is noted: humans; cited from earlier work. The source holds these as a separate data set.
The conditions of series [10]: cats; cited from earlier work.
For series [11] the following is noted: dogs and rabbits; cited from earlier work.
The next series concerns NMDA receptor. Briefly: NMDA receptor binding in human caudate (FIG. 3A). The note with it: comparison in words. As to the method:
The affinity of compounds 7a-c for the NMDA receptor was measured in human brain tissue employing the methodology of P. Popik et al., Psychopharmacol., 114, 672 (1994).

Series [12] relates to kappa-1 receptor. Briefly: Preliminary screening, binding at the kappa-1 receptor. The note with it: in words. The method, then:
To assess the potential addiction-interrupting effects of the newly synthesized iboganoids, compounds 7a,b,c were tested for binding at the 5-HT transporter and the […] and kappa-2 opiate receptors, molecular targets known to modulate mesolimbic dopaminergic function.

[13] abbreviates: rats, 100 μmol/kg, post-injection.

Regarding `Cn1c2c(c3ccccc31)CCNCC2` [6-methyl-1,2,3,4,5,6-hexahydroazepino[4,5-b]indole], the aggressive behavior entry in series [1] is on record as “antagonize aggressive behavior in fighting mice”. Also, in series [2], the conditioned avoidance entry is reported as “block conditioned avoidance”; the “hypothermia and anorexigenic behavior” value was “induce hypothermia and anorexigenic behavior in rodents”. In addition, in [3], the neuroleptic activity entry is “did not exhibit neuroleptic activity in humans”.
For R-ibogamine [R-ibogaine], the dopamine levels result in series [4] was “reduced dopamine levels in the nucleus accumbens and striatum”.
As to `COC(=O)[C@H]1[C@@H](OC(=O)c2ccccc2)C[C@@H]2CC[C@H]1N2C` [cocaine, reference compound], the “reversal of the reduction in locomotor activity induced by 7b” value in series [5] (rats, cocaine 10 mg/kg ip, injected 10 min after 7b) is given as “reversed the reduction in locomotor activity induced by 7b”.
With `c1ccc(C2CNCCc3c2[nH]c2ccccc32)cc1` (stereo not shown) [5-phenyl-1,2,3,4,5,6-hexahydroazepino[4,5-b]indole], the antidepressant activity entry in series [6] was “displayed antidepressant activity”.
On to `CCC1CC2CC3c4[nH]c5ccc(O)cc5c4CCN(C2)C13` (stereo not shown) [Noribogaine, 12-hydroxyibogamine, reference compound], for which, at kappa-1 receptor [7] (0.3 nM [3H]U693593, 1 hr, 25° C., NS definition not stated in line), the IC50 (commonly the concentration at which inhibition is half-maximal) was determined as 4.24 ± 0.28 µM. The nH on kappa-1 receptor [7] (NS definition not stated in line) is listed as 1.1 ± 0.1; at 5-HT transporter, 0.78 ± 0.06.
Turning to `CC[C@H]1C[C@@H]2CN3CCc4c([nH]c5ccccc45)[C@](C(=O)OC)(C2)[C@H]13` [R-coronaridine], the dopamine levels result in series [4] was “reduced dopamine levels in the nucleus accumbens and striatum”.
Turning to `CN1CCc2c([nH]c3ccccc23)C(c2ccccc2)C1` (stereo not shown) [3-methyl-5-phenyl-1,2,3,4,5,6-hexahydroazepino[4,5-b]indole], the antidepressant activity entry in [6] is recorded as “displayed antidepressant activity”.
For `CC[C@H]1C[C@H]2C[C@H]3c4[nH]c5ccc(OC)cc5c4CCN(C2)[C@@H]13` [Ibogaine, ibogaine], the dopamine levels entry in series [4] is on record as “reduce dopamine levels in the striatum”. The “number of doses required for comparable effects” value in series [8] is reported as “up to three doses”. In series [9], the “craving / drug-free status” value was “some addicts reported alleviation or cessation of craving, and a few remained drug-free for several years thereafter; also recorded: effective in reducing craving in some humans while others were unaffected”. Besides, the psychostimulant effects result in series [10] was “psychostimulant which caused phobia, ataxia and tremors in cats”. In addition, the “excitatory effects and local anesthetic activity” value in series [11] is “unusual excitatory effects and local anesthetic activity”.
On kappa-1 receptor [7] (NS = 10 μM Naloxone), `CCN1CCc2c(sc3ccccc23)C(c2cccc(Br)c2)C1` (stereo not shown) [Compound 7c, 3-Ethyl-5-(3-bromophenyl)-1,2,3,4,5-pentahydroazepino[4,5-b]benzothiophene] gave a concentration for half-maximal inhibition (IC50) of 117 ± 14.5 µM and a nH of 0.6 ± 0.1. On kappa-1 receptor [7] (NS, Computer-derived), the half-maximal inhibitory concentration (IC50) came out at 49 ± 0.96 µM and the nH came to 0.9 ± 0.1. The “relative potency at the kappa-1 receptor” value at kappa-1 receptor [7] is given as “significantly less potent”. The “relative potency at the NMDA site” value with NMDA receptor is “equipotent with ibogaine; also recorded: about fivefold more potent than 7a,b and noribogaine”. Besides, on 5-HT transporter, the “relative potency at the 5-HT transporter” value is listed as “essentially equipotent with the naturally occurring compound”, the IC50 came out at 0.82 ± 0.16 µM and the nH was 1.2 ± 0.2. In addition, the “activity/affinity at the kappa-1 receptor” value (“activity/affinity” for short) in the series on kappa-1 receptor [12] is recorded as “some activity”. Further, the “locomotor activity and ataxia / behavioral symptoms” value in series [5] (rats) was “No effects were observed”.
Regarding `CCN1CCc2c(sc3ccccc23)C(c2cccc([N+](=O)[O-])c2)C1` (stereo not shown) [Compound 7b, 3-Ethyl-5-(3-nitrophenyl)-1,2,3,4,5-pentahydroazepino[4,5-b]benzothiophene], on 5-HT transporter, the “relative potency at the 5-HT transporter” value was “two- to threefold more potent than ibogaine”, the 50% inhibitory concentration (IC50) came to 0.26 ± 0.06 µM and the nH was 1.0 ± 0.2. The “activity/affinity” value in the series on kappa-1 receptor [12] is “poor affinity”. Besides, the “tremorigenic effect relative to ibogaine” value in series [5] is “much less tremorigenic than ibogaine”. Besides, the tremors result in series [5] (rats) is “no tremors were observed”.
On kappa-1 receptor [7] (NS = 10 μM Naloxone), `CCN1CCc2c(sc3ccccc23)C(c2ccccc2)C1` (stereo not shown) [Compound 7a, 3-Ethyl-5-phenyl-1,2,3,4,5-pentahydroazepino[4,5-b]benzothiophene] showed an IC50 of 17.2 ± 3.18 µM and a nH of 0.5 ± 0.0. At kappa-1 receptor [7] (NS, Computer-derived), this compound returned an IC50 of 10.1 ± 2.01 µM and a nH of 1.3 ± 0.1. Besides, the “relative potency at the kappa-1 receptor” value at kappa-1 receptor [7] was “essentially equipotent with ibogaine”. Besides, on 5-HT transporter, the “relative potency at the 5-HT transporter” value is on record as “two- to threefold more potent than ibogaine”, the IC50 amounted to 0.21 ± 0.01 µM and the nH worked out at 1.0 ± 0.1. Moreover, the “activity/affinity” value in the series with kappa-1 receptor [12] is recorded as “some activity”. For the same compound, in series [5], the “tremorigenic effect relative to ibogaine” value is recorded as “much less tremorigenic than ibogaine”. In [5] (rats, 100 μmol/kg), the breathing entry was “Breathing appeared labored”; the onset of symptoms is not above 2 min; the tail posture result was “the tail remained outstretched and limp”; the “time at which effects were most severe” value is not above 5 min. In [5] (setting [13]), the “time at which signs of recovery became evident” value is not above 40 min and the “time to full recovery” value was 60 min. Further, in [5] (rats), the tremors result is reported as “Mild tremors”; the “locomotor activity and ataxia / behavioral symptoms” value is “severe reduction in locomotor activity and ataxia”.
